# Biological target: ceDCR-1/DRH-1/RDE-4 (Caenorhabditis elegans, UniProt G5EDI8)
# Details: 5 mM ATP, BLT 42-bp dsRNA with deoxynucleotides
# Chain of ceDCR-1/DRH-1/RDE-4 (G5EDI8 1-1037): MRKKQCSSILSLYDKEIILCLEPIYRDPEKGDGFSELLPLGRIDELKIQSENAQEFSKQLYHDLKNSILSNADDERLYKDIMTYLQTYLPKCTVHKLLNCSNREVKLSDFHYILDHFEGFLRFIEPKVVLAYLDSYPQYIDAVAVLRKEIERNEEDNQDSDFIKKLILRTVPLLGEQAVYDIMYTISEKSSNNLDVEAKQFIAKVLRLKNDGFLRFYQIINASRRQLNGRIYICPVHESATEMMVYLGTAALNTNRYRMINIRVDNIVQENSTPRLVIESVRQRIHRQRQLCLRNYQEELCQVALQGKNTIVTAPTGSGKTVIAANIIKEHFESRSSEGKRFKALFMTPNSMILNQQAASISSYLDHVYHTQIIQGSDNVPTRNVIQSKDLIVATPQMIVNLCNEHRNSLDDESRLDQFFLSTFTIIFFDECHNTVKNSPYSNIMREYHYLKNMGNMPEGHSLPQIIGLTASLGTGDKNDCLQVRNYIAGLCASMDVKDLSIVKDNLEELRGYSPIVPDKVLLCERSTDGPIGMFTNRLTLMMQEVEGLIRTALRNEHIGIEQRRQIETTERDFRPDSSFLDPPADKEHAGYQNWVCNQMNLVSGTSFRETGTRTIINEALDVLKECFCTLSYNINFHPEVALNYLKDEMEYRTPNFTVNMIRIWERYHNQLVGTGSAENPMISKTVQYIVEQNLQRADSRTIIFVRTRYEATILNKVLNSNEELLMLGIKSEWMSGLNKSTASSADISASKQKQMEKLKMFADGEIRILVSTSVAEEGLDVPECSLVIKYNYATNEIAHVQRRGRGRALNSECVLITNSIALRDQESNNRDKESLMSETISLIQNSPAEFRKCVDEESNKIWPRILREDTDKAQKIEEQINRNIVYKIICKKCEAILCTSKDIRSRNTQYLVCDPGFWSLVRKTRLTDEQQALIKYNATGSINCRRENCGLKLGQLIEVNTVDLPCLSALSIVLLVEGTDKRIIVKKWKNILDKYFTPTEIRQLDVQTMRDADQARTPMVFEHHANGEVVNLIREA
# Chain of ceDCR-1/DRH-1/RDE-4 (P34529 whole entry partner): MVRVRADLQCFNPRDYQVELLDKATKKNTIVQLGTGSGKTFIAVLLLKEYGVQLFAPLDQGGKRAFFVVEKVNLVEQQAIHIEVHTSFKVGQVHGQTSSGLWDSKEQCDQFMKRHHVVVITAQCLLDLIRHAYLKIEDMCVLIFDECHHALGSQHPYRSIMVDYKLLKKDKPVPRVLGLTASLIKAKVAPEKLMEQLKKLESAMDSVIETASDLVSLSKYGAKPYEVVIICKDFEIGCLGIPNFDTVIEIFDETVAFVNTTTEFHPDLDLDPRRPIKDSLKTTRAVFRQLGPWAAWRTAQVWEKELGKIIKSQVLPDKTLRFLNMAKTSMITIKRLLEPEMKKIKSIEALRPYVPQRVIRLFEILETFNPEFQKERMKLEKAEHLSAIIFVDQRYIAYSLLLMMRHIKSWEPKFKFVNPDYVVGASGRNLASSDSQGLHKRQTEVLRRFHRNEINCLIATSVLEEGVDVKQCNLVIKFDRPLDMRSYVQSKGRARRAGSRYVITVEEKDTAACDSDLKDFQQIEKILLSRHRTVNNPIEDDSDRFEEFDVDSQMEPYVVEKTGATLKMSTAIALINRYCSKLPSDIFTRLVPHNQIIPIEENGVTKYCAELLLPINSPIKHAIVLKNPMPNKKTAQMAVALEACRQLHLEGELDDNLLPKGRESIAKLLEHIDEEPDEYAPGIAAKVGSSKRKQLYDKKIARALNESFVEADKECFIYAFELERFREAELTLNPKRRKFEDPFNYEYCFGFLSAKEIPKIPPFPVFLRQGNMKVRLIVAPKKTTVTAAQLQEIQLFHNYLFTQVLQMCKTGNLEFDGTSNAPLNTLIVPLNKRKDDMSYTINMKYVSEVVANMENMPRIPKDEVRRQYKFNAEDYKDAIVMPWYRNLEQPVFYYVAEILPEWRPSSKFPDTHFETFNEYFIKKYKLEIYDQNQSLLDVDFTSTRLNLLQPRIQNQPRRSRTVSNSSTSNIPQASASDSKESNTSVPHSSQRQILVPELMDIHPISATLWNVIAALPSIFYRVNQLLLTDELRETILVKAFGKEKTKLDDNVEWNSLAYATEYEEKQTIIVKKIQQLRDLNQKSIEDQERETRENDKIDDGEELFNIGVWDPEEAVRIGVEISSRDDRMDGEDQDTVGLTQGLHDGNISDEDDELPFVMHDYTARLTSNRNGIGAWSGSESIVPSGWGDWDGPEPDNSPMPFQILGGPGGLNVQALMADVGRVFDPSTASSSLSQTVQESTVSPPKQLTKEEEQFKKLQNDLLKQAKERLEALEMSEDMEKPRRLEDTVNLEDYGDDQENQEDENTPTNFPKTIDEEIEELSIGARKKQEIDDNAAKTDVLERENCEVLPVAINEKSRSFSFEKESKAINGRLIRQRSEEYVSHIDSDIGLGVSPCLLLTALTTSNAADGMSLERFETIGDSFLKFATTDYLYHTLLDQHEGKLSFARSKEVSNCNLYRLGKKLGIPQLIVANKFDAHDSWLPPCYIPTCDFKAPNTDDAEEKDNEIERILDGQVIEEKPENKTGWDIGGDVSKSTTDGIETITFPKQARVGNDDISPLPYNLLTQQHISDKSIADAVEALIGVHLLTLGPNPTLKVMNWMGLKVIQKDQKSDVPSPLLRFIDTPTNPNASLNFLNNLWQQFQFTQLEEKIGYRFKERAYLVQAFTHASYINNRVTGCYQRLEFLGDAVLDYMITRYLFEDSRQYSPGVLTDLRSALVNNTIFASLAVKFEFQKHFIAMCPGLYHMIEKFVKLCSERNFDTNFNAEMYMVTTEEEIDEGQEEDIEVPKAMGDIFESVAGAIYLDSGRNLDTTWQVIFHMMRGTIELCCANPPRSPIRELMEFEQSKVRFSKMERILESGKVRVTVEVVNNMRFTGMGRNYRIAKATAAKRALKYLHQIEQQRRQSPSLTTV
# Chain of ceDCR-1/DRH-1/RDE-4 (G5EBF5 1-385 partner): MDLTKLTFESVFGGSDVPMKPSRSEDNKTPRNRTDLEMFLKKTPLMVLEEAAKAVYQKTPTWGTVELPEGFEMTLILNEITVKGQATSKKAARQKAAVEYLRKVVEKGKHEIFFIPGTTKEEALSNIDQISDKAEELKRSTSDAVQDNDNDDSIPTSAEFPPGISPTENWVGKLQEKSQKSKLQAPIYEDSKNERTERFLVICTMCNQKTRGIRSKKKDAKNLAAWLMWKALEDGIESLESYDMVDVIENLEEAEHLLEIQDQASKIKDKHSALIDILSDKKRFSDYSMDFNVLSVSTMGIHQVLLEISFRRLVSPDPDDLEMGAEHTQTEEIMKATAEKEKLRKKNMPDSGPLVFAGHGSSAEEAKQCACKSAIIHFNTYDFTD
smiles,measurement,value
Nc1ncnc2c1ncn2[C@@H]1O[C@H](COP(=O)(O)OP(=O)(O)OP(=O)(O)O)[C@@H](O)[C@H]1O [ATP],streptavidin-displacement (ATP-dependent translocation),Wildtype C. elegans antiviral complex showed ATP-dependent streptavidin displacement on this substrate

# — article PMC12146746 (Proceedings of the National Academy of Sciences of the …, 2025)
